Measurements as given in ChEMBL document CHEMBL2440076, “New triarylpyrazoles as broad-spectrum anticancer agents: design, synthesis, and biological evaluation” (Eur J Med Chem, 2013).

Tests used:
Assay type in all cases: functional
[1] = test system: Malme-3M; experiment: Growth inhibition of human MALME-3M cells assessed as cell growth at 5X10'-5 M after 48 hrs by sulforhodamine B assay; settings: read-out: Activity
[2] = test system: NCI-H522; experiment: Growth inhibition of human NCI-H522 cells assessed as cell growth at 5X10'-5 M after 48 hrs by sulforhodamine B assay; settings: NCI-H522, 48 h, read-out: Activity
[3] = test system: RPMI-8226; experiment: Growth inhibition of human RPMI8226 cells assessed as cell growth at 5X10'-5 M after 48 hrs by sulforhodamine B assay; settings: RPMI-8226, 48 h, read-out: Activity
[4] = test system: MDA-MB-231; experiment: Growth inhibition of human MDA-MB-231 cells assessed as cell growth at 5X10'-6 M after 48 hrs by sulforhodamine B assay; settings: MDA-MB-231, 48 h, read-out: Activity
[5] = test system: PC-3; experiment: Growth inhibition of human PC3 cells assessed as cell growth at 5X10'-6 M after 48 hrs by sulforhodamine B assay; settings: PC-3, 48 h, read-out: Activity
[6] = test system: A498; experiment: Growth inhibition of human A498 cells assessed as cell growth at 5X10'-6 M after 48 hrs by sulforhodamine B assay; settings: A498, 48 h, read-out: Activity
[7] = test system: SK-OV-3; experiment: Growth inhibition of human SKOV3 cells assessed as cell growth at 5X10'-6 M after 48 hrs by sulforhodamine B assay; settings: SK-OV-3, 48 h, read-out: Activity
[8] = test system: NCI-H460; experiment: Growth inhibition of human NCI-H460 cells assessed as cell growth at 5X10'-9 M after 48 hrs by sulforhodamine B assay; settings: NCI-H460, 48 h, read-out: Activity
[9] = test system: NCI-H460; experiment: Growth inhibition of human NCI-H460 cells assessed as cell growth at 5X10'-6 M after 48 hrs by sulforhodamine B assay; settings: NCI-H460, 48 h, read-out: Activity
[10] = test system: CCRF-CEM; experiment: Growth inhibition of human CCRF-CEM cells assessed as cell growth at 5X10'-6 M after 48 hrs by sulforhodamine B assay; settings: read-out: Activity
[11] = test system: RXF 393; experiment: Growth inhibition of human RXF393 cells assessed as cell growth at 5X10'-7 M after 48 hrs by sulforhodamine B assay; settings: RXF 393, 48 h, read-out: Activity
[12] = Growth inhibition of human NCI-ADR-RES cells assessed as cell growth at 5X10'-7 M after 48 hrs by sulforhodamine B assay; settings: read-out: Activity
[13] = test system: U-251; experiment: Growth inhibition of human U251 cells assessed as cell growth at 5X10'-7 M after 48 hrs by sulforhodamine B assay; settings: U-251, 48 h, read-out: Activity
[14] = test system: SW-620; experiment: Growth inhibition of human SW620 cells assessed as cell growth at 5X10'-7 M after 48 hrs by sulforhodamine B assay; settings: SW-620, 48 h, read-out: Activity
[15] = test system: HCT-15; experiment: Growth inhibition of human HCT15 cells assessed as cell growth at 5X10'-7 M after 48 hrs by sulforhodamine B assay; settings: HCT-15, 48 h, read-out: Activity
[16] = test system: HOP-92; experiment: Growth inhibition of human HOP92 cells assessed as cell growth at 5X10'-7 M after 48 hrs by sulforhodamine B assay; settings: HOP-92, 48 h, read-out: Activity
[17] = test system: A549; experiment: Growth inhibition of human A549/ATCC cells assessed as cell growth at 5X10'-7 M after 48 hrs by sulforhodamine B assay; settings: A549, 48 h, read-out: Activity
[18] = test system: RPMI-8226; experiment: Growth inhibition of human RPMI8226 cells assessed as cell growth at 5X10'-7 M after 48 hrs by sulforhodamine B assay; settings: RPMI-8226, 48 h, read-out: Activity
[19] = test system: MDA-MB-468; experiment: Growth inhibition of human MDA-MB-468 cells assessed as cell growth at 5X10'-8 M after 48 hrs by sulforhodamine B assay; settings: MDA-MB-468, 48 h, read-out: Activity
[20] = test system: SN12C; experiment: Growth inhibition of human SN12C cells assessed as cell growth at 5X10'-8 M after 48 hrs by sulforhodamine B assay; settings: read-out: Activity
[21] = Growth inhibition of human NCI-ADR-RES cells assessed as cell growth at 5X10'-8 M after 48 hrs by sulforhodamine B assay; settings: read-out: Activity
[22] = test system: OVCAR-5; experiment: Growth inhibition of human OVCAR5 cells assessed as cell growth at 5X10'-8 M after 48 hrs by sulforhodamine B assay; settings: OVCAR-5, 48 h, read-out: Activity
[23] = test system: IGROV-1; experiment: Growth inhibition of human IGROV1 cells assessed as cell growth at 5X10'-8 M after 48 hrs by sulforhodamine B assay; settings: IGROV-1, 48 h, read-out: Activity
[24] = test system: MDA-MB-435; experiment: Growth inhibition of human MDA-MB-435 cells assessed as cell growth at 5X10'-8 M after 48 hrs by sulforhodamine B assay; settings: MDA-MB-435, 48 h, read-out: Activity
[25] = test system: SF-295; experiment: Growth inhibition of human SF295 cells assessed as cell growth at 5X10'-8 M after 48 hrs by sulforhodamine B assay; settings: SF-295, 48 h, read-out: Activity
[26] = test system: SW-620; experiment: Growth inhibition of human SW620 cells assessed as cell growth at 5X10'-8 M after 48 hrs by sulforhodamine B assay; settings: SW-620, 48 h, read-out: Activity
[27] = test system: T47D; experiment: Growth inhibition of human T47D cells assessed as cell growth at 5X10'-5 M after 48 hrs by sulforhodamine B assay; settings: read-out: Activity
[28] = test system: MDA-MB-231; experiment: Growth inhibition of human MDA-MB-231 cells assessed as cell growth at 5X10'-5 M after 48 hrs by sulforhodamine B assay; settings: MDA-MB-231, 48 h, read-out: Activity
[29] = test system: OVCAR-8; experiment: Growth inhibition of human OVCAR8 cells assessed as cell growth at 5X10'-5 M after 48 hrs by sulforhodamine B assay; settings: OVCAR-8, 48 h, read-out: Activity
[30] = test system: HOP-92; experiment: Growth inhibition of human HOP92 cells assessed as cell growth at 5X10'-8 M after 48 hrs by sulforhodamine B assay; settings: HOP-92, 48 h, read-out: Activity
[31] = test system: A549; experiment: Growth inhibition of human A549/ATCC cells assessed as cell growth at 5X10'-8 M after 48 hrs by sulforhodamine B assay; settings: A549, 48 h, read-out: Activity
[32] = test system: MDA-MB-468; experiment: Growth inhibition of human MDA-MB-468 cells assessed as cell growth at 5X10'-9 M after 48 hrs by sulforhodamine B assay; settings: MDA-MB-468, 48 h, read-out: Activity
[33] = test system: UO-31; experiment: Growth inhibition of human UO31 cells assessed as cell growth at 5X10'-9 M after 48 hrs by sulforhodamine B assay; settings: UO-31, 48 h, read-out: Activity
[34] = test system: SN12C; experiment: Growth inhibition of human SN12C cells assessed as cell growth at 5X10'-9 M after 48 hrs by sulforhodamine B assay; settings: read-out: Activity
[35] = test system: 786-0; experiment: Growth inhibition of human 786-0 cells assessed as cell growth at 5X10'-9 M after 48 hrs by sulforhodamine B assay; settings: 786-0, 48 h, read-out: Activity
[36] = test system: OVCAR-4; experiment: Growth inhibition of human OVCAR4 cells assessed as cell growth at 5X10'-9 M after 48 hrs by sulforhodamine B assay; settings: OVCAR-4, 48 h, read-out: Activity
[37] = test system: SK-MEL-28; experiment: Growth inhibition of human SK-MEL-28 cells assessed as cell growth at 5X10'-9 M after 48 hrs by sulforhodamine B assay; settings: SK-MEL-28, 48 h, read-out: Activity

`COc1cc(-c2nn(-c3cccc(NC(=O)Nc4cc(C(F)(F)F)cc(C(F)(F)F)c4)c3)cc2-c2ccncc2)ccc1Cl` showed a growth at 50 µM [1] of -63%, a growth at 50 µM [2] of -65% and a growth at 50 µM [3] of 3%. For the same compound, the growth at 5 µM [4] was -84%, the growth at 5 µM [5] was -20% and the growth at 5 µM [6] was -43%. It also gave a growth at 5 µM [7] of -39%, a growth at 0.005 µM [8] of 99% and a growth at 5 µM [9] of -41%. It also gave a growth at 5 µM [10] of -17%, a growth at 0.5 µM [11] of 82% and a growth at 0.5 µM [12] of 72%. The growth at 0.5 µM [13] was 60%, the growth at 0.5 µM [14] was 69% and the growth at 0.5 µM [15] was 61%. The growth at 0.5 µM [16] was 30%, the growth at 0.5 µM [17] was 52% and the growth at 0.5 µM [18] was 38%. It also gave a growth at 0.05 µM [19] of 85%, a growth at 0.05 µM [20] of 91% and a growth at 0.05 µM [21] of 106%. The growth at 0.05 µM [22] was 87%, the growth at 0.05 µM [23] was 105% and the growth at 0.05 µM [24] was 98%. For the same compound, the growth at 0.05 µM [25] was 94%, the growth at 0.05 µM [26] was 95% and the growth at 50 µM [27] was 5%. The growth at 50 µM [28] was -85%, the growth at 50 µM [29] was -11% and the growth at 0.05 µM [30] was 67%. It also gave a growth at 0.05 µM [31] of 95%, a growth at 0.005 µM [32] of 90% and a growth at 0.005 µM [33] of 90%. For the same compound, the growth at 0.005 µM [34] was 96%, the growth at 0.005 µM [35] was 100% and the growth at 0.005 µM [36] was 95%. The growth at 0.005 µM [37] was 101%.
